The nature of one series: Test 8: Fish Toxicity. Format: in vivo. The note with it: carp, water; concentration at which 1/2 of the test fishes were killed within 48 hours; read-out: Fish Toxicity, TLm48. As to the method:
A water tank having a width of 60 cm, a length of 30 cm and a height of 40 cm was filled with water, and 10 yearling carps having a body length of about 5 cm were set free in the tank and adapted to the environment in the tank. A test compound was applied so that the concentration in water was 10, 1 or 0.1 ppm. After 48 hours, the numbers of killed and living carps were counted and the influences on the fishes were examined.

A short description of series [1]: Test 9: Toxicity Test (acute oral toxicity, mice). The note with it: mouse, in vivo, po. On the procedure:
A predetermined amount of a solution or suspension of a test compound in corn oil was orally administered to male mice having a body weight of 19 to 23 g (0.2 ml per 10 g of the body weight). After 7 days, the number of killed mice was counted and the influences on the mice were examined.

The subject of another series is diamond back moth. Put plainly: Test 4: Effect on Diamond Back Moth. The class given is in vivo. The settings on record: Plutella, third-instar larvae, 24 hours, read-out: Mortality (%). On the procedure: (§1) To a mixture of 20 parts of the compound of the present invention and 20 parts of Sorpol SM-200 (registered tradename for the product supplied by Toho Chemical Industrial Co., Ltd.) was added 60 parts of xylol, and the mixture was suffciently blended. The obtained emulsifiable concentrate was diluted at a predetermined concentration with distilled water, and the obtained dilution was used.
Cabbage leaves were spread in a plastic cup, and 10 third-instar larvae of diamond back moth were set free in the cup.
A chemical dilution having a concentration of 100 or 20 ppm, prepared in the same manner as described in Test 1, was applied from an applicator at a rate of 3 ml per cup.
After scattering of the chemical dilution, the cup was covered, and after 24 hours, the numbers of killed and living larvae were counted and the mortality was calculated. The test was made on three cups and the average value was calculated.

The test system of series [2] is tobacco cutworm. The series can be described thus: Test 1: Effect on Tobacco Cutworm (leaf immersion), mortality after 24 hours. The class given is in vivo. The note with it: second-instar larvae, 25° C. On the procedure: as §1
An emulsifiable concentrate of a test compound prepared according to the method described in Formulation Example 1 was diluted to a concentration of 100 or 20 ppm. Sweet-potato leaves were immersed in the dilution for 10 seconds, air-dried and placed in a plastic cup having a diameter of 10 cm. Then second-instar larvae of tobacco cutworm were set free in the cup. The cup was allowed to stand still in a thermostat chamber maintained at 25° C. After 24 hours, the numbers of killed and living larvae were counted and the mortality was calculated. The obtained result was expressed by an average value obtained from the mortality calculated in three test cups.

For series [3], the system named is resistant green rice leafhopper (collected at Nakagawara). The series can be described thus: Test 3: Effect on Resistant Green Rice Leafhopper (collected at Nakagawara). The class given is in vivo, Nephotettix cincticeps Uhler (Green rice leafhopper). The settings on record: Nephotettix cincticeps, 24 h, read-out: Mortality (%), Green Rice Leafhopper Collected at Nakagawara. Put shortly: (§2)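 Emulsifiable concentrate diluted to 100 or 20 ppm was sprayed, 3 ml per pot, onto hydroponic rice seedlings at 2–3 leaves. After air-drying, 10 female adults of the Nakagawara (resistant) or Chigasaki (sensitive) strain were released per caged pot. Mortality was counted at 24 h and averaged over three pots.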

The test system of series [4] is sensitive green rice leafhopper (collected at Chigasaki). The series can be described thus: whole plant or invertebrate. Format: in vivo. The settings on record: Nephotettix cincticeps, sensitive female adults, 24 hours, read-out: Mortality (%), Green Rice Leafhopper Collected at Chigasaki. In short, it runs like this:
as §2

Series [5] relates to tobacco cutworm. The series can be described thus: Test 2: Tobacco Cutworm Larva Dipping Test, mortality after 24 hours. The class given is in vivo. The settings on record: 24 hours. On the procedure: as §1
A dilution having a chemical concentration of 100 or 20 ppm was prepared in the same manner as described in Test 1.
Second-instar and fifth-instar larvae of tobacco cutworm were dipped in the dilution for 5 seconds, and the excessive dilution was removed by a filter paper. Then, the larvae were set free in a plastic cup and an artificial diet was supplied thereto. The cup was allowed to stand still in a thermostat chamber maintained at 25° C. After 24 hours, the numbers of the killed and living larvae were counted and the mortality was calculated. The test was made on three cups and the result was expressed by an average value.

In a further series the test system is German cockroach. Put plainly: Test 7: Effect on German Cockroach. Format: in vivo. The note with it: Blattella germanica, male adults, agonized and killed after 24 hours, read-out: Mortality (%); for mortality at 10 mg/m2: 10 mg/m^2; for mortality at 50 mg/m2: 50 mg/m^2. On the procedure: as §1
The bottom face of a high Petri dish having a diameter of 9 cm and a height of 9 cm was treated with 50 or 10 mg/m^2 of a test compound and the dish was air-dried. In order to prevent the adults from escaping from the dish, the inner wall of the dish was treated with butter. Then, 10 male adults of German cockroach were set free in each dish, and the dish was placed in a thermostat chamber maintained at 25° C. After 24 hours, the number of agonized and killed adults was counted. The test was made on two dishes and the average value was calculated.

The mark [6] stands for this setting: fifth-instar larvae, read-out: Motality (%), Fifth-Instar Larvae.
[7] abbreviates: second-instar larvae, read-out: Motality (%), Second-Instar Larvae.

Experimental findings from patent US4570005A, “Process for the preparation of 2-arylpropyl ether or thioether derivatives” (priority 1980, dated 1986) are described below.

With `CC1(C)C(C=C(Cl)Cl)C1C(=O)OCc1cccc(Oc2ccccc2)c1` (stereo not drawn) [(i), Permethrin, reference compound], in the series “Test 8: Fish Toxicity”, the LC50 at 48 h was less than 0.005 µg/mL.
In general, LD50 refers to the dose at which mortality reaches 50%. For `CC(C)C(C(=O)OC(C#N)c1cccc(Oc2ccccc2)c1)c1ccc(Cl)cc1` (stereo not drawn) [Comparative Compound (a), reference compound], the LC50 at 48 h in “Test 8: Fish Toxicity” was less than 0.005 µg/mL. Moreover, the 50% lethal dose (LD50) at 168 h in series [1] is 260 mg/kg.
On to `CCC(C)(COCc1cccc(Oc2ccc(F)cc2)c1)c1ccc(F)cc1` (stereo not drawn) [Compound 2, 3-(4-fluorophenoxy)benzyl 2-(4-fluorophenyl)-2-methylbutyl ether], for which, in “Test 8: Fish Toxicity”, the LC50 at 48 h was more than 1 µg/mL. Moreover, the mortality at 20 ppm in the series with diamond back moth was determined as 100%; in the series with tobacco cutworm [2], 90%; in series [3], 95%; in series [4], 80%. Further, the mortality at 100 ppm (in the series on diamond back moth; in the series with tobacco cutworm [2]; in series [3]; in series [4]) was 100% each time. Also, in series [1], the LD50 at 168 h was more than 500 mg/kg.
With `CC(C)(COCc1cccc(Oc2ccc(Br)cc2)c1)c1ccc(Cl)cc1` [Compound 4, 3-(4-Bromophenoxy)benzyl 2-(4-chlorophenyl)-2-methylpropyl ether], in the series “Test 8: Fish Toxicity”, the LC50 at 48 h is more than 10 µg/mL. Further, the mortality at 20 ppm with diamond back moth worked out at 100%; in the series with tobacco cutworm [2], 95%; in the series with tobacco cutworm [5] (setting [6]), 70%; in the series with tobacco cutworm [5] (setting [7]) it was 90%; in series [3], 70%; in series [4], 50%. Besides, the mortality at 100 ppm stood at 100% in the series with diamond back moth; 100% in the series on tobacco cutworm [2]; 80% with tobacco cutworm [5] (setting [6]); 90% in the series with tobacco cutworm [5] (setting [7]); 100% in series [3]; 100% in series [4]. Further, in series [1], the median lethal dose (LD50) at 168 h is more than 500 mg/kg.
On to `COc1ccc(Oc2cccc(COCC(C)(C)c3ccccc3)c2)cc1` [Compound 13, 3-(4-methoxyphenoxy)benzyl 2-phenyl-2-methylpropyl ether], for which, in the series “Test 8: Fish Toxicity”, the LC50 at 48 h is more than 10 µg/mL. In addition, the 50% lethal dose (LD50) at 168 h in series [1] was more than 500 mg/kg. Besides, the results for the mortality at 20 ppm in series [3] and in series [4] were 70% and 50%, respectively. Moreover, the mortality at 100 ppm in series [3] and in series [4] was 100% throughout.
For `Cc1ccc(Oc2cccc(COCC(C)(C)c3ccc(Cl)cc3)c2)cc1` [Compound 19, 3-(4-methylphenoxy)benzyl 2-(4-chlorophenyl)-2-methylpropyl ether], the LC50 at 48 h in “Test 8: Fish Toxicity” is more than 10 µg/mL. The same compound returned an LD50 at 168 h in series [1] of more than 500 mg/kg. In series [3], the mortality at 20 ppm worked out at 100% and the mortality at 100 ppm came to 100%. Moreover, in series [4], the mortality at 20 ppm came out at 90% and the mortality at 100 ppm was found to be 100%.
Turning to `CC(C)(COCc1cccc(Oc2ccc(Br)cc2)c1)c1ccc(Cl)c(Cl)c1` [Compound 21, 3-(4-Bromophenoxy)benzyl 2-(3,4-dichlorophenyl)-2-methylpropyl ether], the LC50 at 48 h in “Test 8: Fish Toxicity” was more than 10 µg/mL. The LD50 at 168 h in series [1] is more than 500 mg/kg. For the same compound, the mortality at 20 ppm in series [3] was 85%; in series [4], 60%. The mortality at 100 ppm in series [3] and in series [4] was 100% in each case.
For the compound `CC(C)(COCc1cccc(C(=O)c2ccccc2)c1)c1ccc(Cl)cc1` [Compound 22, 3-Benzoylbenzyl 2-(4-chlorophenyl)-2-methylpropyl ether], in the series “Test 8: Fish Toxicity”, the LC50 at 48 h is more than 10 µg/mL. This compound had a 50% lethal dose (LD50) at 168 h in series [1] of more than 500 mg/kg. In addition, in series [3], the mortality at 20 ppm came out at 80% and the mortality at 100 ppm was found to be 100%. For the same compound, in series [4], the mortality at 20 ppm is 50% and the mortality at 100 ppm came to 100%. Further, in the series with German cockroach, the mortality at 10 mg/m2 is 90% and the mortality at 50 mg/m2 is 100%.
On to `CC(C)(COCc1cccc(Oc2ccc(F)cc2)c1)c1cccc(C(F)(F)F)c1` [Compound 23, 3-(4-Fluorophenoxy)benzyl 2-(3-trifluoromethylphenyl)-2-methylpropyl ether], for which the LC50 at 48 h in the series “Test 8: Fish Toxicity” is more than 1 µg/mL. In addition, in the series with tobacco cutworm [2], the mortality at 20 ppm stood at 80% and the mortality at 100 ppm was found to be 100%. Besides, the LD50 at 168 h in series [1] is more than 500 mg/kg.
As to `CC(C)(COCc1cccc(Oc2ccc(Br)cc2)c1)c1ccc(OC(F)F)cc1` [Compound 30, 3-(4-Bromophenoxy)benzyl 2-(4-difluoromethoxyphenyl)-2-methylpropyl ether], in the series “Test 8: Fish Toxicity”, the LC50 at 48 h was more than 1 µg/mL. In addition, the mortality at 20 ppm in the series with diamond back moth came out at 70%; in the series with tobacco cutworm [2], 80%; in series [3] it was 100%; in series [4], 100%. Also, the mortality at 100 ppm (in the series on diamond back moth; in the series with tobacco cutworm [2]; in series [3]; in series [4]) was 100% in each case. In series [1], the LD50 at 168 h is more than 500 mg/kg.
As to `CC(C)(COCc1cccc(Oc2ccccc2)c1)c1ccc2ccccc2c1` [Compound 31, 3-Phenoxybenzyl 2-(2-naphthyl)-2-methylpropyl ether], the LC50 at 48 h in the series “Test 8: Fish Toxicity” was more than 10 µg/mL. This compound also registered an LD50 at 168 h in series [1] of more than 500 mg/kg. Besides, in series [3], the mortality at 20 ppm was determined as 100% and the mortality at 100 ppm came to 100%. For the same compound, in series [4], the mortality at 20 ppm stood at 100% and the mortality at 100 ppm amounted to 100%. Further, in the series on German cockroach, the mortality at 10 mg/m2 came out at 100% and the mortality at 50 mg/m2 was found to be 100%.
With `CC(C)(CSCc1cccc(Oc2ccc(Br)cc2)c1)c1ccc(Cl)cc1` [Compound 37], in the series “Test 8: Fish Toxicity”, the LC50 at 48 h was more than 10 µg/mL. The mortality at 20 ppm in the series with diamond back moth turned out to be 100%; in the series with tobacco cutworm [2], 100%; in series [3], 70%; in series [4], 50%. Also, the mortality at 100 ppm (in the series on diamond back moth; with tobacco cutworm [2]; in series [3]; in series [4]) was 100% throughout. For the same compound, the median lethal dose (LD50) at 168 h in series [1] was more than 500 mg/kg.
On to `CC(C)(COCc1cccc(Oc2ccccc2)c1)c1ccc(F)cc1` [Compound 51, 3-Phenoxybenzyl 2-(4-fluorophenyl)-2-methylpropyl ether], for which the LC50 at 48 h in the series “Test 8: Fish Toxicity” was more than 1 µg/mL. Moreover, the mortality at 20 ppm (in the series with tobacco cutworm [2]; in series [3]; in series [4]) was 100% throughout. For the same compound, the mortality at 100 ppm (in the series with tobacco cutworm [2]; in series [3]; in series [4]) was 100% in each case. For the same compound, in series [1], the LD50 at 168 h is more than 500 mg/kg.
Regarding `CC(C)(COCc1cccc(Oc2ccccc2)c1)c1ccc(Br)cc1` [Compound 107, 3-Phenoxybenzyl 2-(4-bromophenyl)-2-methylpropyl ether], the LC50 at 48 h in “Test 8: Fish Toxicity” is more than 1 µg/mL. In addition, the median lethal dose (LD50) at 168 h in series [1] was more than 500 mg/kg. For the same compound, the mortality at 20 ppm in series [3] and in series [4] was 100% each time. The mortality at 100 ppm in series [3] and in series [4] was 100% in each case.
